Earlier results in US9707278B2, “Methods of modulating immune responses by modifying Akt3 bioactivity” (Augusta University Research Institute, Inc., priority 2014, dated 2017).

Key:
[1] = patients with advanced solid tumors
[2] = system: 250 other protein kinases
[3] = patients with advanced solid tumors; remark: listed apart in the source
p70S6K = p70S6K (Homo sapiens, UniProt P23443)
PKA = PKA (Homo sapiens, UniProt P17612)
[4] = human, in vivo

Sequence of p70S6K (P23443 whole entry): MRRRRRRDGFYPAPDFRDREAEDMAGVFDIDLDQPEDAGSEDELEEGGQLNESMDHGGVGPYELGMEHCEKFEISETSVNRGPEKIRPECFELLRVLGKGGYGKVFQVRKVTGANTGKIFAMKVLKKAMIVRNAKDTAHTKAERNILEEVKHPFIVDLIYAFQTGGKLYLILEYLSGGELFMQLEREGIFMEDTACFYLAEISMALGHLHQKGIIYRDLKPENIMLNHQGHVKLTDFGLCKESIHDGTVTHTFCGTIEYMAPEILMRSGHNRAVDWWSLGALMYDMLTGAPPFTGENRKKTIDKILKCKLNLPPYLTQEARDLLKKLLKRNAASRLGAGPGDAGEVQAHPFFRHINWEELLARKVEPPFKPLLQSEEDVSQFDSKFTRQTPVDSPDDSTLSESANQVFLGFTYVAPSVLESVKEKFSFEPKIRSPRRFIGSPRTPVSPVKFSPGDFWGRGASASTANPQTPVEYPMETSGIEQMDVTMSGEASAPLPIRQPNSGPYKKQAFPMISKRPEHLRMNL

**Q.** Which “single agent maximum tolerated dose” value [1] does the source give for CC(C)NC[C@@H](C(=O)N1CCN(c2ncnc3c2[C@H](C)C[C@H]3O)CC1)c1ccc(Cl)cc1 [GDC-0068] here?
**A.** The value was 600 mg.

**Q.** Which “inhibitory activities against 250 other protein kinases” value [2] does the source give for NC1(c2ccc(-c3nc4ccn5c(=O)[nH]nc5c4cc3-c3ccccc3)cc2)CCC1 [MK-2206 2HCl] here?
**A.** Its value is “no inhibitory activities”.

**Q.** Which dose-limiting toxicities ([3]; 30, 60, 75, or 90 mg on alternate days) does the source give for NC1(c2ccc(-c3nc4ccn5c(=O)[nH]nc5c4cc3-c3ccccc3)cc2)CCC1 [MK-2206] here?
**A.** The dose-limiting toxicities was “skin rash and stomatitis”.

**Q.** What about the MTD ([3]; oral, alternate days) of the same molecule?
**A.** Its MTD is 60 mg.

**Q.** Which results are given for Clc1ccc(C2(c3ccc(-c4cn[nH]c4)cc3)CCNCC2)cc1 [AT7867]?
**A.** IC50 (p70S6K): 85 nM; IC50 (PKA): 20 nM

**Q.** Which tolerability [4] does the source give for NC1(C(=O)N[C@@H](CCO)c2ccc(Cl)cc2)CCN(c2ncnc3[nH]ccc23)CC1 [AZD5363] here?
**A.** Its tolerability is “generally well tolerated”.
